{"source": "paper PMC8086025", "about": "“A benzopyran with antiarrhythmic activity is an inhibitor of Kir3.1-containing potassium channels” (The Journal of Biological Chemistry, 2021)", "key": {"Kv4.3": {"biological_target": "Kv4.3 (Homo sapiens, UniProt Q9UK17)", "sequence (Q9UK17 whole entry)": "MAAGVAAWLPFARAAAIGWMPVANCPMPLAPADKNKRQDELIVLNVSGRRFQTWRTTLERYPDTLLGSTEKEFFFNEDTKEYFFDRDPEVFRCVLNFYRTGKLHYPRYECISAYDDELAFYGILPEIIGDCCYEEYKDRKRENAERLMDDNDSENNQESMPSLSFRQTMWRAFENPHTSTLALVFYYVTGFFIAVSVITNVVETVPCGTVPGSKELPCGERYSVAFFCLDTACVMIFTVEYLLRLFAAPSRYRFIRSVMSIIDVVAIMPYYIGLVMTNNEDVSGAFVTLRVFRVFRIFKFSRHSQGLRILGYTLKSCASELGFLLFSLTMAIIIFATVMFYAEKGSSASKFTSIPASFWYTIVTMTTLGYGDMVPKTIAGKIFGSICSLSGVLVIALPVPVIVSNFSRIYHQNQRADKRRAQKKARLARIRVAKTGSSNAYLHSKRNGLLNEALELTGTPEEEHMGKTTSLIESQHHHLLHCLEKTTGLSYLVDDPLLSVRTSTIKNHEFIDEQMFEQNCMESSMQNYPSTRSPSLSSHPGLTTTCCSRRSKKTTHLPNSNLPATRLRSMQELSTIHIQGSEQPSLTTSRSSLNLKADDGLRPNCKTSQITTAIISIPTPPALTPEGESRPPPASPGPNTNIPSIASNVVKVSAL", "assay": "Cloned cardiac ion channel patch clamp, Kv4.3", "assay_type": "cell-based", "procedure": "(§1) For the data shown in Table S6, HEK293 cells expressing Kir3.1/4, Kir6.2/SUR2A (provided by Dr Andrew Tinker), Kir3.4, Kir2.1, and CHO cell lines stably expressing hERG KV1.5, KV4.3, NaV1.5 were maintained in media containing 10% FCS and appropriate selection antibiotic. Cells were grown either in suspension or in T-flasks and routinely passaged. Cells for patch clamping experiments were plated onto glass cover slips prior to use. Cells for automated patch clamping experiments were freshly prepared on each experimental day.\n(§2) Standard giga-seal whole-cell patch-clamp techniques were performed at room temperature using glass pipettes (2–5 MΩ). HEKA EPC9/10 amplifiers and Pulse software were used for data acquisition. Series resistance was compensated by >70%. Experimental solutions are given under Supporting information. […]\n(§3) Ionic current recordings were analyzed using HEKA software. […]\n(§4) Inhibition of current (or leak-subtracted current) was calculated from steady-state current recorded in the absence (IControl) and presence of test-article (IIntervention). […]\n(§5) Concentration-response data were fitted with a sigmoidal function of the form above, where YMin and YMax represent maximum and minimum current inhibition which were constrained to 100 and 0 respectively and x is the Log[DRUG (M)] based on GraphPad Prism analysis. % inhibition was calculated as in Equation 1. […]"}, "Nav1.5": {"biological_target": "Nav1.5 (Homo sapiens, UniProt Q14524)", "sequence (Q14524 whole entry)": "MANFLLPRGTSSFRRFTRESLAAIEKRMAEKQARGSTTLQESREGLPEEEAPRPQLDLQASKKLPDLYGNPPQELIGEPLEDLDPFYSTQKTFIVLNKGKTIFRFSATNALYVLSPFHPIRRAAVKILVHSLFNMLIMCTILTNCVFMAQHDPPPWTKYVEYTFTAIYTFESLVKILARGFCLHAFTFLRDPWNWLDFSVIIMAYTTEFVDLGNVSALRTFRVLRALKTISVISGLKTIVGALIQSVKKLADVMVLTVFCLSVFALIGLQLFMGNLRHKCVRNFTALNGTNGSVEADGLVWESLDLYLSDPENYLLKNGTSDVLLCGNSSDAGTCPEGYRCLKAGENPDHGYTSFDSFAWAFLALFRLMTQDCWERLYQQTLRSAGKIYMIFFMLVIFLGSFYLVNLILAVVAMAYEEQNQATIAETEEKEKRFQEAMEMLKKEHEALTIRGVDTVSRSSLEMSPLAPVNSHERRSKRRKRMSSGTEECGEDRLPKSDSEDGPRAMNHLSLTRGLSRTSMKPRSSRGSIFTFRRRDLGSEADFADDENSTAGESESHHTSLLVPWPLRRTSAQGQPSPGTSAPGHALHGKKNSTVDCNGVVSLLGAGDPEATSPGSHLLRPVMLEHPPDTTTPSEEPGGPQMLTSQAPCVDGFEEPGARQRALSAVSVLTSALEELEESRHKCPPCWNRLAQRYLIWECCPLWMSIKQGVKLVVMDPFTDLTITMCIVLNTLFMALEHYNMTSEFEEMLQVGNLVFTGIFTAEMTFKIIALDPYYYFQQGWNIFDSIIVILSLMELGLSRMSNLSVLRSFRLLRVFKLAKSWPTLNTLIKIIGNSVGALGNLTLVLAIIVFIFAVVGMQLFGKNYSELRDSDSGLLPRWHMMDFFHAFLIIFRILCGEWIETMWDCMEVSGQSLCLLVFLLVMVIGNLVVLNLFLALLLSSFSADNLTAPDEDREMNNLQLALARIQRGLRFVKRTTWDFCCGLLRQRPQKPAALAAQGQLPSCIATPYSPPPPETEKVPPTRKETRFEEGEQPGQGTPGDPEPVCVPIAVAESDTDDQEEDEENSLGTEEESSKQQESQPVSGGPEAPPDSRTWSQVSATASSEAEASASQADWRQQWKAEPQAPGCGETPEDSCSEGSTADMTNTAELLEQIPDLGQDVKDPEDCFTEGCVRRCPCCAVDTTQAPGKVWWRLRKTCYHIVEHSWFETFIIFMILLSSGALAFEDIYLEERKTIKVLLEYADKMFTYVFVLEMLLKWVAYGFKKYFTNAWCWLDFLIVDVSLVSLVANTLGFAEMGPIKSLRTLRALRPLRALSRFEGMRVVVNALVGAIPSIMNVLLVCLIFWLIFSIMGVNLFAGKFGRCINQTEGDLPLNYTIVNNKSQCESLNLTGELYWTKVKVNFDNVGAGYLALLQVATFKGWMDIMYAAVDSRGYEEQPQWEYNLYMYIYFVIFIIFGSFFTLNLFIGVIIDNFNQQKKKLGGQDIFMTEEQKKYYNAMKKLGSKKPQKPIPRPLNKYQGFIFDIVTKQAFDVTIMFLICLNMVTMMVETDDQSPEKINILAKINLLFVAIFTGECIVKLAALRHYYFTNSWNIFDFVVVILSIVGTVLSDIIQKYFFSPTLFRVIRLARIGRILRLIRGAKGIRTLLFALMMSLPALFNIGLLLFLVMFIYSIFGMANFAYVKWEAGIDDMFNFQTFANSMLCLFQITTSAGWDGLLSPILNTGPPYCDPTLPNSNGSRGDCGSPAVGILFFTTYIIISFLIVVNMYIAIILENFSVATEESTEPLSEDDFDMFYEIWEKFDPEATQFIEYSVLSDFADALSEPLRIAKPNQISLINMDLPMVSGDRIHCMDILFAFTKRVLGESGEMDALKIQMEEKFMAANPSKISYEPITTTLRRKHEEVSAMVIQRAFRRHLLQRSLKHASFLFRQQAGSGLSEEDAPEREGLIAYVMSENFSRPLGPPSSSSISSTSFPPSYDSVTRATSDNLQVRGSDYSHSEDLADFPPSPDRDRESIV", "assay": "Cloned cardiac ion channel manual patch clamp, Nav1.5", "assay_type": "cell-based", "conditions": "1Hz; MPC (manual patch clamp)", "procedure": "as §1, §2, §3, §4, §5"}, "Kir3.1/2 channel": {"biological_target": "T1, Kir3.1/2 channel (UniProt P48542+P48549)", "T1 sequence (P48549 1-501)": "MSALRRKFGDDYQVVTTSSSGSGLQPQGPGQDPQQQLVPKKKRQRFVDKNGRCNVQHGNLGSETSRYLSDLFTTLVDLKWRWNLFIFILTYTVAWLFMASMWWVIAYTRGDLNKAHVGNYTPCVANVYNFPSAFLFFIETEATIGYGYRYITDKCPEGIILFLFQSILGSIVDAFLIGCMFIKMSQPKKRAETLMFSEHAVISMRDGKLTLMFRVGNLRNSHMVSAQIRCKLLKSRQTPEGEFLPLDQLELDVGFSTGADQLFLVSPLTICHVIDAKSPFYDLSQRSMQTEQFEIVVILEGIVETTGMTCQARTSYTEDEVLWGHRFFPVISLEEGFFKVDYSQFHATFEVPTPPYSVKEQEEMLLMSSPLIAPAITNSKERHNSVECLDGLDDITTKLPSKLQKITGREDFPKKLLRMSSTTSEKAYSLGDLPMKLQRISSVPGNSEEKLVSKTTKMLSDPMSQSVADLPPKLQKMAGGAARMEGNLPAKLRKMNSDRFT", "T1 sequence (P48542 1-425)": "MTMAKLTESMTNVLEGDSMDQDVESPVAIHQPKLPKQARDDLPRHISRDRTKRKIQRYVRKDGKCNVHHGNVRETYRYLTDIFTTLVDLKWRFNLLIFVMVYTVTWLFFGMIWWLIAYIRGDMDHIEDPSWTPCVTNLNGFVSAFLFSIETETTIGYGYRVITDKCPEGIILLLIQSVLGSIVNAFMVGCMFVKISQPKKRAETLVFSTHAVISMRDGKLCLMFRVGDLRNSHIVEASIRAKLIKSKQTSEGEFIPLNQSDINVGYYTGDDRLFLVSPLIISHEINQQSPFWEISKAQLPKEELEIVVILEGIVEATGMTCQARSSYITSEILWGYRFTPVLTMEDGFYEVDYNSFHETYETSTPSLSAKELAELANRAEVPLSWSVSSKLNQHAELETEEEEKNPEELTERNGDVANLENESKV", "assay": "TEVC in Xenopus oocytes, Kir3.1/2", "assay_type": "cell-based, human Kir3.1, mouse Kir3.2", "set-up": "expressed in transfected cells", "conditions": "TEVC oocyte experiments; read-out: IC50, inhibition of Kir3.1/2", "procedure": "X. laevis oocytes were isolated and microinjected as previously described ([6]). Human Kir3.1, mouse Kir3.2, and human Kir3.4 DNA constructs were used for electrophysiology experiments. All cRNA constructs were injected in the amount of 2 ng per oocyte. Injected oocytes were incubated for 2 to 3 days at 18 °C to allow for expression. Whole-cell oocyte currents were then measured using a GeneClamp 500 amplifier (Axon Instruments). Microelectrodes had resistances of 0.5 to 1 megohm using a 3M KCl solution in 1.4% agarose. Oocytes were perfused with a low K^+ (LK) solution ND96 (2 mM KCl, 96 mM NaCl, 1 mM MgCl2, 1.8 mM CaCl2, 5 mM HEPES-Na) to establish a baseline for the recordings. Basal current was measured in a high potassium (HK) solution ND96K (96 mM KCl, 10 mM HEPES-K, 1 mM MgCl2, 1.8 mM CaCl2). To block the current, the oocyte chamber was perfused with 4 mM BaCl2 in ND96K. Only the Barium-sensitive current was used for statistical analysis. To measure the inhibitory activity of the channels, 1 μM BP-G1 in ND96K (HK) was used. Typically, oocytes were held at 0 mV (EK) and the current was monitored constantly using a ramp protocol with a command potential from −80 to +80 mV. Current amplitude was measured at the end of a 1 s sweep. All currents were analyzed when they reached steady state. Error bars in the figures represent SD (N > 4)."}, "sigma (non-selective)": {"system": "sigma (non-selective)", "assay": "Radioligand binding, [3H]DTG, Jurkat cells (endogenous)", "conditions": "listed as Benzopyran-G1"}}, "note": "“And” between values parts separate entries of the source, which are not always exact repeats. Equal entries are not always repeated.", "data": [{"smiles": "Cc1cc(CO)nc2cc3c(cc12)OC(C)(C)[C@H](O)[C@H]3NCCc1ccccc1", "note": "[BP-G1, (3R,4S)-7-(hydroxymethyl)-2,2,9-trimethyl-4-(2-phenylethylamino)-3,4-dihydropyrano[2,3-g]quinolin-3-ol]", "values": [{"measurement": "IC50", "setting": "Kv4.3", "value": 11300, "unit": "nM"}, {"measurement": "IC50", "setting": "Nav1.5", "value": "> 10000", "unit": "nM"}, {"measurement": "IC50", "setting": "Kir3.1/2 channel", "value": "55.9 nM and 55 nM"}, {"measurement": "% Specific Binding at 10 µM", "setting": "sigma (non-selective)", "value": "40.267% and < 50%"}]}]}
